Tests used:
mouse Mfsd2a [1] = molecular target: T1, mouse Mfsd2a (Mus musculus, UniProt Q9DA75); experiment: In vitro transport (uptake) of radiolabeled and fluorescent LPCs in HEK293 cells overexpressing Mfsd2a; assay type: cell-based
T1 construct: expressed in transfected cells; host or cells: HEK293
T1 sequence (Q9DA75 1-534): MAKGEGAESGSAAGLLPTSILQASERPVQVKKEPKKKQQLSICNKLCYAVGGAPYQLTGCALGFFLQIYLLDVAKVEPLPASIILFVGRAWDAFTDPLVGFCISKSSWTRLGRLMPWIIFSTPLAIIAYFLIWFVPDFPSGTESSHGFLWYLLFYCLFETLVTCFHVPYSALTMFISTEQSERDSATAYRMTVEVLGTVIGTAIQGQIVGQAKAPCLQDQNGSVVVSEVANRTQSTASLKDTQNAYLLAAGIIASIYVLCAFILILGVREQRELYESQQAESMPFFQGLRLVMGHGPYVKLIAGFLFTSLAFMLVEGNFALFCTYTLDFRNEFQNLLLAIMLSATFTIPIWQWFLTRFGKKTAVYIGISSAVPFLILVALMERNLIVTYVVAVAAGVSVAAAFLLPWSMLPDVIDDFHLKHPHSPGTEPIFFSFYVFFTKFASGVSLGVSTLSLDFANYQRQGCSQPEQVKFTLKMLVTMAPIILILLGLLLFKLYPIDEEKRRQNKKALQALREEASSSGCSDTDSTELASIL
Description: Uptake assays of radiolabeled LPCs or fluorescent LPCs were tested using HEK293 cells overexpressing Mfsd2a and mutants constructs. Briefly, HEK293 cells at 90-95% confluency were transfected using LIPOFECTAMINE 2000 (Invitrogen) with pcDNA3.1Mfsd2a (WT), pcDNA3.1Mfsd2aD92A (D92A), pcDNA3.1Mfsd2aD96A (D96A), or pcDNA3.1 (mock) plasmids. Uptake assays were performed after 24 hours of transfections. Prior to ligand incubation, HEK293 transfected cells were washed with serum-free DMEM before assays. For concentration and time dependent assays, radiolabeled LPCs were diluted in pre-warmed DMEM media. For sodium dependent assay, radiolabeled LPCs were diluted in transport buffer (5 mM KCl, 10 mM Hepes, pH 7.4) with 150 mM NaCl or 150 mM choline chloride. For sodium concentration dependent assays, any reductions in the concentration of NaCl were replaced by choline chloride in order to maintain a constant cation molarity of 150 mM. All assays were performed in 12 well-plates with triplicates and at 37° C.

mouse Mfsd2a [2] = molecular target: T1, mouse Mfsd2a; experiment: TLC analysis of phospholipids (bio-incorporation of LPC into PC); assay type: cell-based; settings: TLC
Description: HEK293 cells overexpressing with pcDNA3.1Mfsd2a (WT), pcDNA3.1Mfsd2aD92A (D92A), pcDNA3.1Mfsd2aD96A, or pcDNA3.1 (mock) plasmids or human Mfsd2a (in Sport6 plasmid) were washed once with serum-free DMEM medium before incubation with 50 μM radiolabeled LPC [^14C]oleate, LPC [^14C]DHA or with 50 μM TopFluor-LPC and NBD-LPC. Lipids were extracted twice with HIP buffer for 30 mins. Lipids were dried with nitrogen stream and reconstituted in chloroform and spotted on TLC plates (Milipore). Solvent for phospholipid separation was chloroform/methanol/ammonia solution (25%) (50:25:6, per volume). TLC plates of radiolabeled phospholipids were dried for 30 mins and exposed overnight to Phosphorscreens and scanned with Typhoon FLA 9000 scanner (Agilent). TLC plates of fluorescent phospholipids were scanned with Typhoon FLA 9000 scanner and quantified using Imagequant software.

[3] = Blood LPC [14C]-oleate analysis; assay type: in vivo, mice; settings: intravenous, 2 hrs post-injection
Description: Mfsd2a KO and WT mice were injected intravenously with 100 μM radioactive labeled LPC [^14C]-oleate. 10 μl of blood samples were collected after 2 min (initial dose) and after 2 hr from tail vein, and radioactivity was quantified by scintillation counting. The amount of plasma LPC [^14C]-oleate in the KO mice was expressed as ratio to the WT at each time point.

Mfsd2a = molecular target: T2, Mfsd2a (Mus musculus, UniProt Q9DA75); experiment: In vivo transport of radiolabeled, fluorescent LPCs and unesterified DHA in Mfsd2a KO and wild-type mice; design: from tissue; host or cells: living mice; brain (blood-brain barrier endothelium), liver, heart; fetal brain; settings: i.v. injection, 2 hrs post-injection, radiolabel
T2 sequence (Q9DA75 1-534): T1 sequence (Q9DA75 1-534)
Description: Male and female mice of age of 6-8 weeks were IV injected with 75 μl of 20 mM radiolabeled LPC-[…], 100 μl of 10 mM LPC-[^14C]DHA/BSA complex or 82 μl of 12.2 mM [^14C]DHA/BSA complex in a total volume of 150 μl of phosphate-buffered saline. At 2 hours post injection, mice were anesthetized and perfused for 5 mins with PBS containing 0.5% BSA in order to remove blood and lipid tracer bound to the brain vasculature. Tissues were harvested for lipid extraction. For lipid extraction, tissues were weighed and similar amounts of tissues were homogenized in chloroform/methanol. Lipids from the organic phase were mixed with scintillant and scintillation counted. Similar experiments were also performed with an injection of 300 μg NBD-LPC/BSA or 300 μg TopFluor-LPC/BSA complex per mouse. In this experiment, mice were perfused for 5 mins with PBS followed 15 mins perfusion with 4% paraformaldehyde (PFA) for tissue fixation. Brain sections of WT and KO with a thickness of 40 μm were prepared and scanned using green fluorescence mode in Typhoon FLA 9000 scanner (Agilent). NBD-LPC accumulation was expressed as fluorescence of each section per its area. Dietary DHA transport from mother to fetus was also measured using [^14C]DHA/BSA complex. Pregnant females at e18.5 was gavaged with bolus of [^14C]DHA/BSA complex (200 μl of 10 mM [^14C]DHA/BSA/mouse). Brain of fetuses were collected 20 hours post-gavage and weighed. Lipid extraction and radioactivity were performed as described above.

CCCCCCCCC=CCCCCCCCC(=O)OC[C@@H](O)COP(=O)([O-])OCC[N+](C)(C)C [LPC-[^14C]oleate, 1-oleoyl 2-lysophosphocholine]
comparison of Mfsd2a-mediated uptake (capacity to transport) (mouse Mfsd2a [1]; HEK293 cells expressing Mfsd2a): highest capacity to transport LPC-DHA, followed by LPC-oleate, and LPC-palmitate
uptake of radiolabeled LPC by cells expressing Mfsd2a relative to control cells (mouse Mfsd2a [1]; HEK293 cells, wild-type Mfsd2a vs mock, LPC/BSA, 30 mins): concentration-dependent uptake
net uptake of LPC ligand (PC mass) (mouse Mfsd2a [2]; 100 μM unlabeled LPC-oleate, 1 hour): Increased net uptake
conversion of transported LPCs into PCs (mouse Mfsd2a [2]; HEK293 cells expressing Mfsd2a, radiolabeled LPC): rapid conversion of transported LPCs into PCs
plasma level of injected tracer in KO mice relative to WT [3]: increased levels
brain uptake in KO mice relative to wild-type (Mfsd2a): markedly reduced
